The experiment relates to Aβ42 production. The experiment is described as follows: Quantification of Aβ peptide in culture of neurons from rat fetus brain (Aβ ELISA). In kind it is cell-based. As to conditions: Neuron, 72 h; rat primary neuronal culture (cerebral cortex, embryonic day 18 Wistar rats); medium collected three days after addition of the compound; Aβx-42 ELISA; read-out: Aβ42 production reducing effect IC50. As to the method:
Quantification of Aβ Peptide in Culture of Neurons from Rat Fetus Brain
(1) Rat Primary Neuronal Culture
Primary neuronal cultures were prepared from the cerebral cortex of embryonic day 18 Wistar rats (Charles River Japan, Yokohama, Japan). Specifically, the embryos were aseptically removed from pregnant rats under ether anesthesia. The brain was isolated from the embryo and immersed in an ice-cold L-15 medium (such as Invitrogen Corp. Cat #11415-064, Carlsbad, Calif., USA, or SIGMA L1518). The cerebral cortex was collected from the isolated brain under a stereoscopic microscope. The cerebral cortex fragments collected were enzymatically treated in an enzyme solution containing 0.25% trypsin (Invitrogen Corp. Cat #15050-065, Carlsbad, Calif., USA) and 0.01% DNase (Sigma D5025, St. Louis, Mo., USA) at 37° C. for 30 minutes to disperse the cells. Here, the enzymatic reaction was stopped by adding inactivated horse serum to the solution. The enzymatically treated solution was centrifuged at 1,500 rpm for five minutes to remove the supernatant. 5 to 10 mL of a medium was added to the resulting cell mass. Neurobasal medium (Invitrogen Corp. Cat #21103-049, Carlsbad, Calif., USA) supplemented with 2% B27 supplement (Invitrogen Corp. Cat #17504-044, Carlsbad, Calif., USA), 25 μM 2-mercaptoethanol (2-ME, WAKO Cat #139-06861, Osaka, Japan), 0.5 mM L-glutamine (Invitrogen Corp. Cat #25030-081, Carlsbad, Calif., USA), and Antibiotics-Antimycotics (Invitrogen Corp. Cat #15240-062, Carlsbad, Calif., USA) was used as the medium (Neurobasal/B27/2-ME). However, the above Neurobasal medium not supplemented with 2-ME (Neurobasal/B27) was used for the assay. The cells were redispersed by mild pipetting of the cell mass to which the medium was added. The cell dispersion was filtered through a 40-μm nylon mesh (Cell Strainer, Cat #35-2340, Becton Dickinson Labware, Franklin Lakes, N.J., USA) to remove the remaining cell mass, and thus a neuronal cell suspension was obtained. The neuronal cell suspension was diluted with the medium and then plated in a volume of 100 μL/well at an initial cell density of 5×10^5 cells/cm^2 in a 96-well polystyrene culture plate pre-coated with poly-L or D-lysine (Falcon Cat #35-3075, Becton Dickinson Labware, Franklin Lakes, N.J., USA coated with poly-L-lysine using the method shown below, or BIOCOAT™ cell environments Poly-D-lysine cell ware 96-well plate, Cat #35-6461, Becton Dickinson Labware, Franklin Lakes, N.J., USA). Poly-L-lysine coating was carried out as follows. 100 μg/mL of a poly-L-lysine (SIGMA P2636, St. Louis, Mo., USA) solution was aseptically prepared with a 0.15 M borate buffer (pH 8.5). […] of the solution was added to the 96-well polystyrene culture plate and incubated at room temperature for one or more hours or at 4° C. overnight or longer. Thereafter, the coated 96-well polystyrene culture plate was washed with sterile water four or more times, and then dried or rinsed with, for example, sterile PBS or medium, and used for cell plating. The plated cells were cultured in the culture plate at 37° C. in 5% CO2-95% air for one day. Then, the total amount of the medium was replaced with a fresh Neurobasal™/B27/2-ME medium, and then the cells were cultured for further three days.
The drug was added to the culture plate on Day 4 of culture as follows. The total amount of the medium was removed from the wells, and 180 μL/well of Neurobasal medium not containing 2-ME and containing 2% B-27 (Neurobasal/B27) was added thereto. A solution of the test compound in dimethyl sulfoxide (hereinafter abbreviated as DMSO) was diluted with Neurobasal/B27 to a concentration 10-fold higher than the final concentration. 20 μL/well of the dilution was added to and sufficiently mixed with the medium. The final DMSO concentration was 1% or less. Only DMSO was added to the control group.
The cells were cultured for three days after addition of the compound, and the total amount of the medium was collected. […]
A general note: ELISA stands for enzyme-linked immunosorbent assay.

As a reminder, the IC50 is the midpoint of a concentration-inhibition curve.

As for `NC1=N[C@@]2(c3cc(NC(=O)c4ncc(Br)cn4)ccc3F)CCC[C@H]2CS1` (single isomer, unassigned) [Example 176, N-[3-((4aR*,7aS*)-2-amino-4a,5,6,7-tetrahydro-4H-cyclopenta[d][1,3]thiazin-7a-yl)-4-fluorophenyl]-5-bromopyrimidine-2-carboxamide], the IC50 was determined as 10 nM.
For `C[C@H]1OC[C@]2(c3cc(NC(=O)c4ccc(OC(F)F)cn4)ccc3F)N=C(N)SC[C@H]12` (relative stereo) [Example 59, N-[3-((4aS*,5R*,7aS*)-2-amino-5-methyl-4a,5-dihydro-4H-furo[3,4-d][1,3]thiazin-7a-yl)-4-fluorophenyl]-5-difluoromethoxypyridine-2-carboxamide], the IC50 is 2 nM.
On to `NC1=N[C@@]2(c3cc(NC(=O)c4cnc(OCF)cn4)ccc3F)COC[C@H]2CS1` (single isomer, unassigned) [Example 27, N-[3-((7S*,7aS*)-2-amino-4a,5-dihydro-4H-furo[3,4-d][1,3]thiazin-7a-yl)-4-fluorophenyl]-5-fluoromethoxypyrazine-2-carboxamide], for which the IC50 came to 11 nM.
Take `NC1=N[C@@]2(c3cc(NC(=O)c4ncccc4Cl)ccc3F)CCCC[C@H]2CS1` [Example 258]: the IC50 amounted to 376 nM.
In the case of `NC1=N[C@@]2(c3cc(NC(=O)c4ncc(F)cc4F)ccc3F)COC[C@H]2CS1` (single isomer, unassigned) [Example 188, N-[3-((4aS*,7aS*)-2-amino-4a,5-dihydro-4H-furo[3,4-d][1,3]thiazin-7a-yl)-4-fluorophenyl]-3,5-difluoropyridine-2-carboxamide], the IC50 was 22 nM.
In the case of `COc1ccc(NC(=O)c2ccc(Cl)cn2)cc1[C@]12CCC[C@H]1CSC(N)=N2` (racemic) [Example 34, (±)-N-[3-((4aR*,7aS*)-2-amino-4a,5,6,7-tetrahydro-4H-cyclopenta[d][1,3]thiazin-7a-yl)-4-methoxyphenyl]-5-chloropyridine-2-carboxamide], the IC50 was found to be 115 nM.
For `CO[C@@H]1CC[C@]2(c3cc(NC(=O)c4cnc(C(F)F)cn4)ccc3F)N=C(N)SC[C@@H]2C1` (relative stereo) [Example 207, N-[3-((4aR*,6R*,8aS*)-2-amino-6-methoxy-4,4a,5,6,7,8-hexahydrobenzo[d][1,3]thiazin-8a-yl)-4-fluorophenyl]-5-difluoromethylpyrazine-2-carboxamide], the IC50 is 3 nM.
The figure for `NC1=N[C@@]2(c3cc(NC(=O)c4ccc(F)cn4)ccc3F)CCC[C@H]2CS1` (relative stereo) [Example 9, N-[3-((4aR*,7aS*)-2-amino-4a,5,6,7-tetrahydro-4H-cyclopenta[d][1,3]thiazin-7a-yl)-4-fluorophenyl]-5-fluoropyridine-2-carboxamide] is 28 nM; for `CO[C@H]1CC[C@]2(c3cc(NC(=O)c4ccc(C#N)cn4)ccc3F)N=C(N)SC[C@@H]2C1` (relative stereo) [Example 204, N-[3-((4aR*,6S*,8aS*)-2-amino-6-methoxy-4,4a,5,6,7,8-hexahydrobenzo[d][1,3]thiazin-8a-yl)-4-fluorophenyl]-5-cyanopyridine-2-carboxamide] it is 23 nM; for `NC1=N[C@@]2(c3cc(NC(=O)c4cnc5ccccc5n4)ccc3F)CCC[C@H]2CS1` [Example 140] it is 67 nM.
With `C[C@H]1OC[C@]2(c3cc(NC(=O)c4cnc(OCF)cn4)ccc3F)N=C(N)SC[C@H]12` (relative stereo) [Example 57, N-[3-((4aS*,5R*,7aS*)-2-amino-5-methyl-4a,5-dihydro-4H-furo[3,4-d][1,3]thiazin-7a-yl)-4-fluorophenyl]-5-fluoromethoxypyrazine-2-carboxamide], the IC50 turned out to be 3 nM.
`NC1=N[C@@]2(c3cc(NC(=O)c4cnc(OCCF)cn4)ccc3F)CCC[C@H]2CS1` (single isomer, unassigned) [Example 183, N-[3-((4aR*,7aS*)-2-amino-4a,5,6,7-tetrahydro-4H-cyclopenta[d][1,3]thiazin-7a-yl)-4-fluorophenyl]-5-(2-fluoroethoxy)-pyrazine-2-carboxamide]: the IC50 came out at 28 nM.
With `NC1=N[C@@]2(c3cc(NC(=O)c4ncccc4C(F)(F)F)ccc3F)CCC[C@H]2CS1` (single isomer, unassigned) [Example 170, N-[3-((4aR*,7aS*)-2-amino-4a,5,6,7-tetrahydro-4H-cyclopenta[d][1,3]thiazin-7a-yl)-4-fluorophenyl]-3-trifluoromethylpyridine 2-carboxamide] the figure was 210 nM; with `CC[C@H]1OC[C@]2(c3cc(NC(=O)c4cnc(C(F)F)cn4)ccc3F)N=C(N)SC[C@H]12` (relative stereo) [Example 53, N-[3-((4aS*,5R*,7aS*)-2-amino-5-ethyl-4a,5-dihydro-4H-furo[3,4-d][1,3]thiazin-7a-yl)-4-fluorophenyl]-5-difluoromethylpyrazine-2-carboxamide], 2 nM; with `NC1=N[C@@]2(c3cc(NC(=O)c4cnc(C(F)F)cn4)ccc3F)CCOC[C@H]2CS1` (relative stereo) [Example 79, N-[3-((4aS*,8aS*)-2-amino-4a,5,7,8-tetrahydro-4H-6-oxa-3-thia-1-azanaphthalen-8a-yl)-4-fluorophenyl]-5-difluoromethylpyrazine-2-carboxamide], 28 nM.
With `N#Cc1ccc(C(=O)Nc2ccc(F)c([C@]34CCOC[C@H]3CSC(N)=N4)c2)nc1` (single isomer, unassigned) [Example 28, N-[3-((4aS*,8aS*)-2-amino-4a,7,8-tetrahydro-4H-6-oxa-3-thia-1-azanaphthalen-8a-yl)-4-fluorophenyl]-5-cyanopyridine-2-carboxamide] the figure was 12 nM.
The figure for `NC1=N[C@@]2(c3cc(NC(=O)c4ncccc4C(F)(F)F)ccc3F)CCCC[C@H]2CS1` [Example 261] is 277 nM; for `NC1=N[C@@]2(c3cc(NC(=O)c4ccc(C(F)F)cn4)ccc3F)COC[C@H]2CS1` (single isomer, unassigned) [Example 190, N-[3-((4aS*,7aS*)-2-amino-4a,5-dihydro-4H-furo[3,4-d][1,3]thiazin-7a-yl)-4-fluorophenyl]-5-difluoromethylpyridine-2-carboxamide] it is 12 nM; for `NC1=N[C@@]2(c3cc(NC(=O)c4ccc5ccccc5n4)ccc3F)CCC[C@H]2CS1` [Example 139] it is 169 nM.
For `N#Cc1ccc(C(=O)Nc2ccc(F)c([C@]34C[C@H](CF)OC[C@H]3CSC(N)=N4)c2)nc1` [Example 42, N-[3-((4aS,7R,8aS)-2-amino-7-fluoromethyl-4a,5,7,8-tetrahydro-4H-6-oxa-3-thia-1-azanaphthalen-8a-yl)-4-fluorophenyl]-5-cyanopyridine-2-carboxamide], the IC50 was determined as 4 nM.
The figure for `N#Cc1ccc(C(=O)Nc2ccc(F)c([C@]34CCCC[C@H]3CSC(N)=N4)c2)nc1` (relative stereo) [Example 19, N-[3-((4aR*,8aS*)-2-amino-4,4a,5,6,7,8-hexahydrobenzo[d][1,3]thiazin-8a-yl)-4-fluorophenyl]-5-cyanopyridine-2-carboxamide] is 45 nM.

For the origin of these results see US20100317850A1 (priority 2008, published 2010).
